Assays:
mTORC2 = mTORC2 (Homo sapiens, UniProt P42345); details: RD cells, 20 μM, 2 hours, insulin medium, Western blot
CB3 virus [1] = system: CB3 virus
[2] = system: Poliovirus I/II/III (mixed vaccine strains of three subtypes)
mTOR kinase = mTOR kinase (Homo sapiens, UniProt P42345); test: Inhibitory activity on mTOR kinase (TR-FRET, GFP-4E-BP1 substrate); assay type: biochemical; details: fit parameter of concentration-mTOR kinase inhibition curve
mTORC1 = mTORC1 (Homo sapiens, UniProt P42345); details: RD cells, 20 μM, 2 hours, insulin medium, Western blot
EV71 virus [3] = test: microbe, parasite or virus in culture; details: Enterovirus A, EV71, RD, 96 h
EV-D68 [4] = system: EV-D68
EV-D68 [5] = test: microbe, parasite or virus in culture; details: Enterovirus D, EVD68, RD, 96 h
CA6 = test: organism not typed; assay type: cell-based; details: RD, 96 h
CB3 virus [6] = test: organism not typed; details: Vero, 120 h
[7] = system: Poliovirus I/II/III (mixed vaccine strains of three subtypes); test: microbe, parasite or virus in culture; details: Enterovirus C, RD, 96 h
CA16 = test: organism not typed; assay type: cell-based; details: RD, 96 h
CA10 = test: organism not typed; assay type: cell-based; details: RD, 96 h
EV71 virus [8] = system: EV71 virus

Compound: Nc1ccc(-c2ccc3ncc4ccc(=O)n(-c5cccc(C(F)(F)F)c5)c4c3c2)cn1 [compound of Formula I, 9-(6-amino-pyridin-3-yl)-1-(3-trifluoromethyl-phenyl)-1H-benzo[h][1,6]naphthyridin-one]
- phosphorylation level of Akt (Ser473) (mTORC2): significantly down-regulate
- inhibitory effect on enterovirus (in words) (CB3 virus [1]): significant inhibitory effect
- inhibitory effect on enterovirus (in words) [2]: significant inhibitory effect
- Bottom (mTOR kinase): 3.74
- HillSlope (mTOR kinase): 1.14
- Top (mTOR kinase): 103.60
- phosphorylation expression levels of p70 (Thr389 of p70S6K1) (mTORC1): significantly reduced
- IC50 (EV71 virus [3]): 10 nM
- inhibitory effect on enterovirus (in words) (EV-D68 [4]): significant inhibitory effect
- IC50 (EV-D68 [5]): 5 nM
- IC50 (CA6): > 10000 nM
- IC50 (CB3 virus [6]): 5 nM
- IC50 [7]: 52 nM
- IC50 (CA16): > 10000 nM
- IC50 (CA10): > 10000 nM
- inhibitory effect on enterovirus (in words) (EV71 virus [8]): significant inhibitory effect

From US20220204501A1, “ENTEROVIRUS INHIBITOR” (ACADEMY OF MILITARY MEDICAL SCIENCES, priority 2019, published 2022)
